Each structure is given as a SMILES string. pIC50: −log10 of the molar value. Starred links: 1 amine or outer side, 2 acyl side, 3 side chain; linkers in the order of their positions; H or OH if unused. Positions of bridges follow the written chain, without caps; N, C: chain ends. Non-standard residues stand in square brackets, D forms with d. Residues, ends and D or L forms follow the SMILES beside them. Trp(2-yl) = O=C([C@H](Cc1c([*:3])[nH]c2ccccc12)N[*:1])[*:2]; Phe(4-yl) = O=C([C@H](Cc1ccc([*:3])cc1)N[*:1])[*:2]; mXylylene = c1cc(C[*:1])cc(C[*:2])c1; pXylylene = c1cc(C[*:2])ccc1C[*:1]; βAla = NCCC(=O)O

For one experiment, the target named is Keap1-Maltose Binding Protein (MBP tag) (Homo sapiens, UniProt Q14145). In words: Nrf2-Keap1 HTRF (TR-FRET) binding assay: displacement of biotinylated ETGE peptide from Keap1-MBP.
Chain of Keap1-Maltose Binding Protein (MBP tag) (Q14145 whole entry): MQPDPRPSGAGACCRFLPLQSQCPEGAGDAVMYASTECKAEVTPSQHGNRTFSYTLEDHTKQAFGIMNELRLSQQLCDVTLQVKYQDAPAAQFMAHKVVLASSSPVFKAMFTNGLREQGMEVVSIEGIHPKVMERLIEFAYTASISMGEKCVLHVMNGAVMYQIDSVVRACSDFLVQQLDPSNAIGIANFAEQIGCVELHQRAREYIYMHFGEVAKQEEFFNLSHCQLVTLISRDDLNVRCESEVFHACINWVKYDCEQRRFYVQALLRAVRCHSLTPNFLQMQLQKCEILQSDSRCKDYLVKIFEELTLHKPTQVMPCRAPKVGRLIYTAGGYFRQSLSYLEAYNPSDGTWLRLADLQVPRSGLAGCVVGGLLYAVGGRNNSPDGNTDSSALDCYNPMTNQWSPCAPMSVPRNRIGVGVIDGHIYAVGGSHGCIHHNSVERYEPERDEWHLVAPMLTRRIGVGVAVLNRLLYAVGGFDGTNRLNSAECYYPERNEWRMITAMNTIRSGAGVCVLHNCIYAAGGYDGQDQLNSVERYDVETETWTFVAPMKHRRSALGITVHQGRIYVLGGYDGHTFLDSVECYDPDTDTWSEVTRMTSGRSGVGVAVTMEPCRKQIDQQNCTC
Settings: not given
Usually pIC50 stands for the IC50 on a negative log10 scale, so that one unit is a factor of ten. Regarding `CC(C)C[C@H](NC(=O)[C@@H]1CSc2[nH]c3ccccc3c2C[C@H](NC(=O)[C@H](CCC(N)=O)NC(=O)[C@@H](N)CC(C)C)C(=O)N[C@@H](CC(=O)O)C(=O)N[C@@H](CCC(=O)O)C(=O)N[C@@H](CCC(=O)O)C(=O)N[C@@H]([C@@H](C)O)C(=O)NCC(=O)N[C@@H](CCC(=O)O)C(=O)N1)C(=O)N1CCC[C@H]1C(=O)O` [Example 1, H-Leu-Gln-Trp(indol-2-yl-&^1)-Asp-Glu-Glu-Thr-Gly-Glu-Cys(&^1)-Leu-Pro-OH] (H-LQ[Trp(2-yl)]DEETGECLP-OH; thioether 3-10), the pIC50 is 7.00 to 9.00.
Still for that read-out and setting: in the case of `CC(C)C[C@@H]1NC(=O)[C@@H]2CCCN2C(=O)[C@H](CC(C)C)NC(=O)[C@@H]2CSCc3cccc(c3)CSC[C@H](NC(=O)[C@H](CCC(N)=O)NC1=O)C(=O)N[C@@H](CC(=O)O)C(=O)N[C@@H](CCC(=O)O)C(=O)N[C@@H](CCC(=O)O)C(=O)N[C@@H]([C@@H](C)O)C(=O)NCC(=O)N[C@@H](CCC(=O)O)C(=O)N2` [Example 4, {[&^1Leu-Gln-Cys(&^2)-Asp-Glu-Glu-Thr-Gly-Glu-Cys(&^3)-Leu-Pro&^1][&^2(1,3-phenylenediyl)dimethylene&^3]}] (cyclo(CDEETGECLPLQ); linker 1-8 via mXylylene) it was over 9.00; in that of `CC(C)C[C@@H]1NC(=O)[C@@H]2CCCN2C(=O)[C@H](CC(C)C)NC(=O)[C@@H]2CSCc3ccc(cc3)CSC[C@H](NC(=O)[C@H](CCC(N)=O)NC1=O)C(=O)N[C@@H](CC(=O)O)C(=O)N[C@@H](CCC(=O)O)C(=O)N[C@@H](CCC(=O)O)C(=O)N[C@@H]([C@@H](C)O)C(=O)NCC(=O)N[C@@H](CCC(=O)O)C(=O)N2` [Example 5, {[&^1Leu-Gln-Cys(&^2)-Asp-Glu-Glu-Thr-Gly-Glu-Cys(&^3)-Leu-Pro&^1][&^2(1,4-phenylenediyl)dimethylene&^3]}] (cyclo(CDEETGECLPLQ); linker 1-8 via pXylylene), 7.00 to 9.00.
On the same count and under the same terms, in the case of `CC(=O)N[C@H]1Cc2c([nH]c3ccccc23)SC[C@@H](C(N)=O)NC(=O)[C@H](CCC(=O)O)NC(=O)CNC(=O)[C@H]([C@@H](C)O)NC(=O)[C@H](CCC(=O)O)NC(=O)[C@H](CCC(=O)O)NC(=O)[C@H](CC(=O)O)NC1=O` [Example 7, Acetyl-Trp(indol-2-yl-&^1)-Asp-Glu-Glu-Thr-Gly-Glu-Cys(&^1)-NH2] (Ac-[Trp(2-yl)]DEETGEC-NH2; thioether 1-8) it was 7.00 to 9.00.
`CC(C)C[C@@H]1NC(=O)[C@@H]2CCCN2C(=O)[C@H](CC(C)C)NC(=O)[C@@H]2CSc3[nH]c4ccccc4c3C[C@H](NC(=O)[C@H](CCC(N)=O)NC1=O)C(=O)N[C@@H](CC(=O)O)C(=O)N[C@@H](CCC(=O)O)C(=O)N[C@@H](CCC(=O)O)C(=O)N[C@@H]([C@@H](C)O)C(=O)NCC(=O)N[C@@H](CCC(=O)O)C(=O)N2` [Example 11, &^1Leu-Gln-Trp(indol-2-yl-&^2)-Asp-Glu-Glu-Thr-Gly-Glu-Cys(&^2)-Leu-Pro&^1] (cyclo(CLPLQ[Trp(2-yl)]DEETGE); thioether 1-6) had a pIC50 of 7.00 to 9.00.

Still in this experiment, the particulars now being: HTRF (TR-FRET); displacement of ETGE-biotin from Keap1-MBP; values banded into grades; read-out: Binding (IC50) ETGE-Keap1.
Turning to `CC(C)C[C@H](NC(=O)[C@@H]1CSCc2ccc(cc2)CSC[C@H](NC(=O)[C@H](CCC(N)=O)NC(=O)[C@@H](N)CC(C)C)C(=O)N[C@@H](CC(=O)O)C(=O)N[C@@H](CCC(=O)O)C(=O)N[C@@H](CCC(=O)O)C(=O)N[C@@H]([C@@H](C)O)C(=O)NCC(=O)N[C@@H](CCC(=O)O)C(=O)N1)C(=O)N1CCC[C@H]1C(=O)O` [Example 2, {[H-Leu-Gln-Cys(&^1)-Asp-Glu-Glu-Thr-Gly-Glu-Cys(&^2)-Leu-Pro-OH][&^1(1,4-phenylenediyl)dimethylene&^2]}] (H-LQCDEETGECLP-OH; linker 3-10 via pXylylene), the pIC50 was 5.30 to 7.00.
The same measure, in the same setting: in the case of `CC(C)C[C@H](NC(=O)[C@@H]1CSCc2cccc(c2)CSC[C@H](NC(=O)[C@H](CCC(N)=O)NC(=O)[C@@H](N)CC(C)C)C(=O)N[C@@H](CC(=O)O)C(=O)N[C@@H](CCC(=O)O)C(=O)N[C@@H](CCC(=O)O)C(=O)N[C@@H]([C@@H](C)O)C(=O)NCC(=O)N[C@@H](CCC(=O)O)C(=O)N1)C(=O)N1CCC[C@H]1C(=O)O` [Example 3, {[H-Leu-Gln-Cys(&^1)-Asp-Glu-Glu-Thr-Gly-Glu-Cys(&^2)-Leu-Pro-OH][&^1(1,3-phenylenediyl)dimethylene&^2]}] (H-LQCDEETGECLP-OH; linker 3-10 via mXylylene) it was 7.00 to 9.00; in that of `CC(C)C[C@H](NC(=O)[C@@H]1CSc2[nH]c3ccccc3c2C[C@H](NC(=O)[C@H](CCC(N)=O)NC(=O)[C@@H](N)CC(C)C)C(=O)N[C@@H](CC(=O)O)C(=O)N[C@@H](CCC(=O)O)C(=O)N[C@@H](CCC(=O)O)C(=O)N[C@@H]([C@@H](C)O)C(=O)NCC(=O)N[C@@H](CCC(=O)O)C(=O)N1)C(=O)N1CCC[C@H]1C(=O)NCCC(=O)N[C@@H](CCCNC(=N)N)C(=O)N[C@@H](CCCCN)C(=O)N[C@@H](CCCCN)C(=O)N[C@@H](CCCNC(=N)N)C(=O)N[C@@H](CCCNC(=N)N)C(=O)N[C@@H](CCC(N)=O)C(=O)N[C@@H](CCCNC(=N)N)C(=O)N[C@@H](CCCNC(=N)N)C(=O)N[C@@H](CCCNC(=N)N)C(N)=O` [Example 8], 7.00 to 9.00; in that of `CC(C)C[C@H](NC(=O)[C@@H]1CSCc2cccc(c2)CSC[C@H](NC(=O)[C@H](CCC(N)=O)NC(=O)[C@@H](N)CC(C)C)C(=O)N[C@@H](CC(=O)O)C(=O)N[C@@H](CCC(=O)O)C(=O)N[C@@H](CCC(=O)O)C(=O)N[C@@H]([C@@H](C)O)C(=O)NCC(=O)N[C@@H](CCC(=O)O)C(=O)N1)C(=O)N1CCC[C@H]1C(=O)NCCC(=O)N[C@@H](CCCNC(=N)N)C(=O)N[C@@H](CCCCN)C(=O)N[C@@H](CCCCN)C(=O)N[C@@H](CCCNC(=N)N)C(=O)N[C@@H](CCCNC(=N)N)C(=O)N[C@@H](CCC(N)=O)C(=O)N[C@@H](CCCNC(=N)N)C(=O)N[C@@H](CCCNC(=N)N)C(=O)N[C@@H](CCCNC(=N)N)C(N)=O` [Example 9], 7.00 to 9.00.
Still for that read-out and setting: in the case of `CC(=O)N[C@H]1Cc2ccc(cc2)SC[C@@H](C(N)=O)NC(=O)[C@H](CCC(=O)O)NC(=O)CNC(=O)[C@H]([C@@H](C)O)NC(=O)[C@H](CCC(=O)O)NC(=O)[C@H](CCC(=O)O)NC(=O)[C@H](CC(=O)O)NC1=O` [Example 10, Acetyl-Phe(p-&^1)-Asp-Glu-Glu-Thr-Gly-Glu-Cys(&^1)-NH2] (Ac-[Phe(4-yl)]DEETGEC-NH2; thioether 1-8) it was 5.30 to 7.00.
Take `CC(C)C[C@H](NC(=O)[C@@H]1CSCc2cccc(c2)CSC[C@H](NC(=O)[C@H](CCC(N)=O)NC(=O)[C@@H](N)CC(C)C)C(=O)N[C@@H](CC(=O)O)C(=O)N[C@@H](CCC(=O)O)C(=O)N[C@@H](CCC(=O)O)C(=O)N[C@@H]([C@@H](C)O)C(=O)NCC(=O)N[C@@H](CCC(=O)O)C(=O)N1)C(=O)N1CCC[C@H]1C(=O)NCCC(=O)N[C@@H](Cc1ccc(O)cc1)C(=O)N[C@@H](C)C(=O)N[C@@H](CCCNC(=N)N)C(=O)N[C@@H](C)C(=O)N[C@@H](C)C(=O)N[C@@H](C)C(=O)N[C@@H](CCCNC(=N)N)C(=O)N[C@@H](CCC(N)=O)C(=O)N[C@@H](C)C(=O)N[C@@H](CCCNC(=N)N)C(=O)N[C@@H](C)C(N)=O` [Example 13] (H-LQCDEETGECLP[βAla]YARAAARQARA-NH2; linker 3-10 via mXylylene): the pIC50 was 7.00 to 9.00.

The values are drawn from patent US20200255478A1, “NOVEL COMPOUNDS ACTIVATING THE NRF2 PATHWAY” (Almirall, S.A., priority 2017, published 2020).
